PubChem BioAssay AID2060903 (Molecular Pharmacology Branch, DTP, NCI, 2025)

Tested on: 377384-186-R-J1-PDC complex spheroid viability
Experiment: Anticancer human tumor 377384-186-R-J1-PDC patient-derived pancreatic carcinoma cell line growth inhibition [RAS]
Conditions: for viability, T/C: stronger effect = lower value; for IC50: curve of first compound
Excerpt: RAS pathway inhibitors in Combinations in Complex Spheroids
A high-throughput screen of multi-cell type tumor spheroids was designed to identify active combinations of RAS pathway inhibitors and targeted small molecules. Complex spheroids include a stromal component modeled by human endothelial cells (HUVEC) and fibroblasts modeled by human mesenchymal stem cells (MSCs). The concentration ranges selected for each drug and investigational agent were based upon clinically achievable concentrations if the clinical Cmax of the agent was known.
Compounds. The drugs and investigational agents: abemaciclib (NSC768073), cobimetinib (NSC768068), divarasib (GDC6063, NSC841802), docetaxel (NSC628503), GDC-1971 (RLY-1971, NSC841576), gemcitabine (NSC613327), inavolisib (NSC800729), ipatasertib (NSC767898), KB-0742 (NSC834161), MRTX-1133 (NSC836407), osimertinib (NSC779217), RMC-4630 (NSC839698), RMC-6236 (NSC851965), RMC-6291 (NSC852671), Ro-3306 (NSC812927), sapanisertib (NSC764658), SN-38 (NSC673596), staurosporine (NSC755774), SY5609 (NSC837396), and tovorafenib (DAY101, NSC766906), were obtained from the National Cancer Institute (NCI) Developmental Therapeutics Program Chemical Repository. The FDA-approved anticancer drug set is available from the NCI Developmental Therapeutics Program. […] The stock solutions were prepared in dimethyl sulfoxide (DMSO, Sigma-Aldrich, St. Louis, MO, cat. D2650) at 800-fold the tested concentration and stored at -70 degrees C prior to their use. All drugs and investigational agents were tested over a range starting from a high concentration at or near the clinical Cmax and decreasing in half-log increments. If the clinical Cmax for an agent had not been determined, the highest concentration tested was 10 microM.
Cell Culture. All cells were maintained in an incubator at 37 degrees C and 5% CO2 with 95% humidity. The PDC lines were cultured according to standard operating procedures established by the NCI PDMR. All PDCs were thawed and cultured in Matrigel-coated flasks prepared with a working solution of 1X Ham's F-12 nutrient mix, without supplementation (Invitrogen, Waltham, MA, cat. 11765054), 100 U/mL penicillin-streptomycin (Invitrogen, cat. 15140122), and 2.5% Matrigel (Corning Inc., Corning, NY, cat. 354248) for the first three passages. The 362531-283-R-J2-PDC and 782815-120-R-J1-PDC lines were cultured in 6C/Colon 1B media, which includes advanced DMEM/F-12 (Thermo Fisher Scientific, cat. 12634028), 10 mM HEPES (Thermo Fisher Scientific, cat. 15630080), 1X GlutaMAX supplement (Thermo Fisher Scientific, cat. 35050061), 0.1 mg/mL primocin (InvivoGen, San Diego, CA, cat. ant-pm-2), 10% defined fetal bovine serum, heat inactivated (HyClone Laboratories Inc., Logan, UT, cat. SH30070.03HI), 50% L-WRN conditioned media (ATCC, cat. CRL-3276), 1.25 mM N-Acetyl-L-cysteine (Sigma-Aldrich, cat. A9165), 10 mM nicotinamide (Sigma-Aldrich, cat. N0636), 1X B-27 supplement (Thermo Fisher Scientific, cat. 17504044), 1X N-2 supplement (Thermo Fisher Scientific, cat. 17502048), 50 ng/mL human EGF (Thermo Fisher Scientific, cat. PHG0311), and 10 microM Y-27632 dihydrochloride (Tocris Bioscience, cat. 1254). The K12877-001-R-J1-PDC line was cultured in 6I media, which includes all 6C/Colon 1B media plus 10 ng/mL human FGF-10 (PeproTech, cat. 100-26), 1 ng/mL human FGF-2 (PeproTech, cat. 100-18B), 1 µM prostaglandin E2 (Tocris Bioscience, cat. 2296), […] hydrocortisone (Sigma-Aldrich, cat. H4001), and […] bovine insulin (Sigma-Aldrich, cat. I6634). The K86415-001-R-J1-PDC line was cultured in 6D media, which includes all 6C/Colon 1B media components minus the L-WRN conditioned media. The 485176-168-R4-J1-PDC was cultured in PANC media, which includes all 6C/Colon 1B media plus 100 ng/mL human FGF-10 (PeproTech, cat. 100-26), 500 nM SB-431542 (Selleckchem, cat. S1067), and 10 nM gastrin (Tocris Bioscience, cat. 3006). […]

[1] = second compound 0.000949 µM, first compound 0.0316 µM
[2] = second compound 0.000949 µM, first compound 0.1 µM
[3] = second compound 0.003 µM, first compound 0.0316 µM
[4] = second compound 0.003 µM, first compound 0.1 µM
[5] = second compound 0.00949 µM, first compound 0.0316 µM
[6] = second compound 0.00949 µM, first compound 0.1 µM
[7] = second compound 0.03 µM, first compound 0.0316 µM
[8] = second compound 0.03 µM, first compound 0.1 µM
[9] = second compound 0.0949 µM, first compound 0.0316 µM
[10] = second compound 0.0949 µM, first compound 0.1 µM
[11] = second compound 0.3 µM, first compound 0.0316 µM
[12] = second compound 0.3 µM, first compound 0.1 µM
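Also: spheroids exposed to compounds for seven days before readout.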

SMILES: CCn1c(-c2cc(N3CCN(C)CC3)cnc2C(C)OC)c2c3cc(ccc31)-c1csc(n1)CC(NC(=O)C1CC1C)C(=O)N1CCCC(N1)C(=O)OCC(C)(C)C2 (stereo not given)
- viability, T/C (compound 0.000949 µM): 51.8% [middle of 8 runs]
- viability, T/C (compound 0.003 µM): 21.4% [middle of 8 runs]
- viability, T/C (compound 0.00949 µM): 5.65% [middle of 8 runs]
- viability, T/C (compound 0.03 µM): 2.68% [middle of 8 runs]
- viability, T/C (compound 0.0949 µM): 2.25% [middle of 8 runs]
- viability, T/C (compound 0.3 µM): 1.95% [middle of 7 runs]

SMILES: CCC(CC)c1cc(NC2CCC(N)C2)n2nccc2n1 (stereo not given) + CCn1c(-c2cc(N3CCN(C)CC3)cnc2C(C)OC)c2c3cc(ccc31)-c1csc(n1)CC(NC(=O)C1CC1C)C(=O)N1CCCC(N1)C(=O)OCC(C)(C)C2
- IC50 (second compound 0.000949 µM): < 31.6 nM
- IC50 (second compound 0.003 µM): < 31.6 nM
- IC50 (second compound 0.00949 µM): < 31.6 nM
- IC50 (second compound 0.03 µM): < 31.6 nM
- IC50 (second compound 0.0949 µM): < 31.6 nM
- IC50 (second compound 0.3 µM): < 31.6 nM
- viability, T/C [1]: 48.2%
- viability, T/C [2]: 55%
- viability, T/C (second compound 0.000949 µM, first compound 0.316 µM): 46.9%
- viability, T/C (second compound 0.000949 µM, first compound 1 µM): 32.9%
- viability, T/C (second compound 0.000949 µM, first compound 3.16 µM): 0.81%
- viability, T/C (second compound 0.000949 µM, first compound 10 µM): 2.3%
- viability, T/C [3]: 21.7%
- viability, T/C [4]: 16.6%
- viability, T/C (second compound 0.003 µM, first compound 0.316 µM): 20.9%
- viability, T/C (second compound 0.003 µM, first compound 1 µM): 10.7%
- viability, T/C (second compound 0.003 µM, first compound 3.16 µM): 0.83%
- viability, T/C (second compound 0.003 µM, first compound 10 µM): 2.38%
- viability, T/C [5]: 4.86%
- viability, T/C [6]: 4.6%
- viability, T/C (second compound 0.00949 µM, first compound 0.316 µM): 5.64%
- viability, T/C (second compound 0.00949 µM, first compound 1 µM): 3.71%
- viability, T/C (second compound 0.00949 µM, first compound 3.16 µM): 0.61%
- viability, T/C (second compound 0.00949 µM, first compound 10 µM): 3.05%
- viability, T/C [7]: 2.61%
- viability, T/C [8]: 2.47%
- viability, T/C (second compound 0.03 µM, first compound 0.316 µM): 2.47%
- viability, T/C (second compound 0.03 µM, first compound 1 µM): 2.01%
- viability, T/C (second compound 0.03 µM, first compound 3.16 µM): 0.73%
- viability, T/C (second compound 0.03 µM, first compound 10 µM): 1.89%
- viability, T/C [9]: 1.88%
- viability, T/C [10]: 1.8%
- viability, T/C (second compound 0.0949 µM, first compound 0.316 µM): 1.76%
- viability, T/C (second compound 0.0949 µM, first compound 1 µM): 2.22%
- viability, T/C (second compound 0.0949 µM, first compound 3.16 µM): 0.82%
- viability, T/C (second compound 0.0949 µM, first compound 10 µM): 2.4%
- viability, T/C [11]: 2.16%
- viability, T/C [12]: 1.88%
- viability, T/C (second compound 0.3 µM, first compound 0.316 µM): 1.75%
- viability, T/C (second compound 0.3 µM, first compound 1 µM): 1.54%
- viability, T/C (second compound 0.3 µM, first compound 3.16 µM): 0.54%
- viability, T/C (second compound 0.3 µM, first compound 10 µM): 1.98%

SMILES: CC(C)n1nc(-c2ccc3oc(N)nc3c2)c2c(N)ncnc21 + CCn1c(-c2cccnc2C(C)OC)c2c3cc(ccc31)N1CCOC(CC(NC(=O)C(C(C)C)N(C)C(=O)C3(F)CCN(C(=O)C#CC(C)(C)N(C)C)CC3)C(=O)N3CCCC(N3)C(=O)OCC(C)(C)C2)C1
- IC50 (second compound 0.000949 µM): > 100 nM
- IC50 (second compound 0.003 µM): > 100 nM
- IC50 (second compound 0.00949 µM): > 100 nM
- IC50 (second compound 0.03 µM): > 100 nM
- IC50 (second compound 0.0949 µM): > 100 nM
- IC50 (second compound 0.3 µM): 7.68 nM
- viability, T/C (second compound 0.000949 µM, first compound 0.000316 µM): 96.9%
- viability, T/C (second compound 0.000949 µM, first compound 0.001 µM): 92%
- viability, T/C (second compound 0.000949 µM, first compound 0.00316 µM): 80.3%
- viability, T/C (second compound 0.000949 µM, first compound 0.01 µM): 62.1%
- viability, T/C [1]: 31.9%
- viability, T/C [2]: 99%
- viability, T/C (second compound 0.003 µM, first compound 0.000316 µM): 93.8%
- viability, T/C (second compound 0.003 µM, first compound 0.001 µM): 84.8%
- viability, T/C (second compound 0.003 µM, first compound 0.00316 µM): 86.8%
- viability, T/C (second compound 0.003 µM, first compound 0.01 µM): 59.4%
- viability, T/C [3]: 37.1%
- viability, T/C [4]: 98.4%
- viability, T/C (second compound 0.00949 µM, first compound 0.000316 µM): 96.2%
- viability, T/C (second compound 0.00949 µM, first compound 0.001 µM): 91.7%
- viability, T/C (second compound 0.00949 µM, first compound 0.00316 µM): 66.6%
- viability, T/C (second compound 0.00949 µM, first compound 0.01 µM): 55.8%
- viability, T/C [5]: 34.1%
- viability, T/C [6]: 89.8%
- viability, T/C (second compound 0.03 µM, first compound 0.000316 µM): 86.6%
- viability, T/C (second compound 0.03 µM, first compound 0.001 µM): 78.1%
- viability, T/C (second compound 0.03 µM, first compound 0.00316 µM): 72.3%
- viability, T/C (second compound 0.03 µM, first compound 0.01 µM): 53.8%
- viability, T/C [7]: 33.7%
- viability, T/C [8]: 101%
- viability, T/C (second compound 0.0949 µM, first compound 0.000316 µM): 77%
- viability, T/C (second compound 0.0949 µM, first compound 0.001 µM): 82.2%
- viability, T/C (second compound 0.0949 µM, first compound 0.00316 µM): 71.4%
- viability, T/C (second compound 0.0949 µM, first compound 0.01 µM): 55%
- viability, T/C [9]: 37.9%
- viability, T/C [10]: 69.3%
- viability, T/C (second compound 0.3 µM, first compound 0.000316 µM): 68.8%
- viability, T/C (second compound 0.3 µM, first compound 0.001 µM): 74.7%
- viability, T/C (second compound 0.3 µM, first compound 0.00316 µM): 66.8%
- viability, T/C (second compound 0.3 µM, first compound 0.01 µM): 45.7%
- viability, T/C [11]: 27.2%
- viability, T/C [12]: 56.1%
